# Assays:
# Type in all cases: functional
# A549 = assay: Cytotoxicity against human A549 cells
# COLO 205 = assay: Cytotoxicity against human COLO205 cells
# SF-539 = assay: Cytotoxicity against human SF539 cells
# 786-0 = assay: Cytotoxicity against human 786-0 cells
# NCI-H23 = assay: Cytotoxicity against human NCI-H23 cells
# SF-295 = assay: Cytotoxicity against human SF295 cells
# SK-OV-3 = assay: Cytotoxicity against human SKOV3 cells
# LOX IMVI = assay: Cytotoxicity against human LOXIMVI cells
# HCT-15 = assay: Cytotoxicity against human HCT15 cells
# M14 = assay: Cytotoxicity against human M14 cells
# SR = assay: Cytotoxicity against human SR cells
# HL-60 = assay: Cytotoxicity against human HL60 cells
# SK-MEL-2 = assay: Cytotoxicity against human SK-MEL-2 cells
# HCC 2998 = assay: Cytotoxicity against human HCC2998 cells
# UO-31 = assay: Cytotoxicity against human UO31 cells
# SNB-19 = assay: Cytotoxicity against human SNB19 cells
# NCI-H226 = assay: Cytotoxicity against human NCI-H226 cells
# MDA-MB-435 = assay: Cytotoxicity against human MDA-MB-435 cells
# HCT-116 = assay: Cytotoxicity against human HCT116 cells
# SW-620 = assay: Cytotoxicity against human SW620 cells
# [1] = Cytotoxicity against human Hs 578T cells
# OVCAR-5 = assay: Cytotoxicity against human OVCAR5 cells
# TK-10 = assay: Cytotoxicity against human TK10 cells
# OVCAR-3 = assay: Cytotoxicity against human OVCAR-3 cells
# CAKI-1 = assay: Cytotoxicity against human Caki1 cells
# RXF 393 = assay: Cytotoxicity against human RXF393 cells
# NCI-H460 = assay: Cytotoxicity against human NCI-H460 cells
# BT-549 = assay: Cytotoxicity against human BT549 cells
# OVCAR-8 = assay: Cytotoxicity against human OVCAR8 cells
# DU-145 = assay: Cytotoxicity against human DU145 cells
# [2] = Cytotoxicity against human MCF7/ADR cells; settings: NCI/ADR-RES
# PC-3 = assay: Cytotoxicity against human PC3 cells
# KM12 = assay: Cytotoxicity against human KM12 cells
# SK-MEL-28 = assay: Cytotoxicity against human SK-MEL-28 cells
# MDA-MB-231 = assay: Cytotoxicity against human MDA-MB-231 cells
# NCI-H322M = assay: Cytotoxicity against human NCI-H322M cells
# U-251 = assay: Cytotoxicity against human U251 cells
# T47D = assay: Cytotoxicity against human T47D cells
# SNB-75 = assay: Cytotoxicity against human SNB75 cells
# HT-29 = assay: Cytotoxicity against human HT29 cells
# OVCAR-4 = assay: Cytotoxicity against human OVCAR4 cells
# SF-268 = assay: Cytotoxicity against human SF268 cells
# CCRF-CEM = assay: Cytotoxicity against human CCRF-CEM cells
# ACHN = assay: Cytotoxicity against human ACHN cells
# NCI-H522 = assay: Cytotoxicity against human NCI-H522 cells
# [3] = read-out: pLC50 (the source's name) (converted)
smiles,measurement,setting,value
C#C[C@H](O)/C=C/CCCCCCCCCC/C=C\CCCCCCC[C@H](O)C#CC#CC#CCO [TRIANGULYNE A],GI50,A549,339 nM
same,CC50,A549; [3],47.9 µM
same,TGI,A549; read-out: pTGI (converted),5.75 µM
same,GI50,COLO 205,200 nM
same,LC50,COLO 205,2290 nM
same,TGI,COLO 205; read-out: pTGI (converted),417 nM
same,GI50,SF-539,1100 nM
same,CC50,SF-539; [3],19.1 µM
same,TGI,SF-539; read-out: pTGI (converted),3.31 µM
same,GI50,786-0,288 nM
same,CC50,786-0; [3],3.98 µM
same,TGI,786-0; read-out: pTGI (converted),1100 nM
same,GI50,NCI-H23,257 nM
same,CC50,NCI-H23; [3],14.1 µM
same,TGI,NCI-H23; read-out: pTGI (converted),1290 nM
same,GI50,SF-295,2880 nM
same,CC50,SF-295; [3],51.3 µM
same,TGI,SF-295; read-out: pTGI (converted),9.55 µM
same,GI50,SK-OV-3,2820 nM
same,CC50,SK-OV-3; [3],37.2 µM
same,TGI,SK-OV-3; read-out: pTGI (converted),7.94 µM
same,GI50,LOX IMVI,141 nM
same,LC50,LOX IMVI,7.94 µM
same,TGI,LOX IMVI; read-out: pTGI (converted),363 nM
same,GI50,HCT-15,407 nM
same,LC50,HCT-15,7.24 µM
same,TGI,HCT-15; read-out: pTGI (converted),2090 nM
same,GI50,M14,158 nM
same,LC50,M14,3.47 µM
same,TGI,M14; read-out: pTGI (converted),813 nM
same,GI50,SR,182 nM
same,LC50,SR,100 µM
same,TGI,SR; read-out: pTGI (converted),3.24 µM
same,GI50,HL-60,83.2 nM
same,LC50,HL-60,25.1 µM
same,TGI,HL-60; read-out: pTGI (converted),3.63 µM
same,GI50,SK-MEL-2,251 nM
same,CC50,SK-MEL-2; [3],7.76 µM
same,TGI,SK-MEL-2; read-out: pTGI (converted),891 nM
same,GI50,HCC 2998,257 nM
same,LC50,HCC 2998,2190 nM
same,TGI,HCC 2998; read-out: pTGI (converted),692 nM
same,GI50,UO-31,1290 nM
same,CC50,UO-31; [3],5.5 µM
same,TGI,UO-31; read-out: pTGI (converted),2690 nM
same,GI50,SNB-19,3.39 µM
same,CC50,SNB-19; [3],52.5 µM
same,TGI,SNB-19; read-out: pTGI (converted),12 µM
same,GI50,NCI-H226,603 nM
same,CC50,NCI-H226; [3],8.13 µM
same,TGI,NCI-H226; read-out: pTGI (converted),1910 nM
same,GI50,MDA-MB-435,170 nM
same,CC50,MDA-MB-435; [3],4.47 µM
same,TGI,MDA-MB-435; read-out: pTGI (converted),832 nM
same,GI50,HCT-116,129 nM
same,LC50,HCT-116,3.47 µM
same,TGI,HCT-116; read-out: pTGI (converted),661 nM
same,GI50,SW-620,339 nM
same,LC50,SW-620,9.33 µM
same,TGI,SW-620; read-out: pTGI (converted),1290 nM
same,GI50,[1],2400 nM
same,CC50,[1]; [3],57.5 µM
same,TGI,[1]; read-out: pTGI (converted),8.32 µM
same,GI50,OVCAR-5,4.47 µM
same,CC50,OVCAR-5; [3],34.7 µM
same,TGI,OVCAR-5; read-out: pTGI (converted),12 µM
same,GI50,TK-10,646 nM
same,CC50,TK-10; [3],11 µM
same,TGI,TK-10; read-out: pTGI (converted),2090 nM
same,GI50,OVCAR-3,372 nM
same,CC50,OVCAR-3; [3],5.25 µM
same,TGI,OVCAR-3; read-out: pTGI (converted),1510 nM
same,GI50,CAKI-1,251 nM
same,CC50,CAKI-1; [3],3.39 µM
same,TGI,CAKI-1; read-out: pTGI (converted),676 nM
same,GI50,RXF 393,339 nM
same,CC50,RXF 393; [3],18.2 µM
same,TGI,RXF 393; read-out: pTGI (converted),1290 nM
same,GI50,NCI-H460,347 nM
same,CC50,NCI-H460; [3],42.7 µM
same,TGI,NCI-H460; read-out: pTGI (converted),1820 nM
same,GI50,BT-549,794 nM
same,CC50,BT-549; [3],11 µM
same,TGI,BT-549; read-out: pTGI (converted),2400 nM
same,GI50,OVCAR-8,129 nM
same,CC50,OVCAR-8; [3],21.9 µM
same,TGI,OVCAR-8; read-out: pTGI (converted),851 nM
same,GI50,DU-145,1410 nM
same,CC50,DU-145; [3],18.2 µM
same,TGI,DU-145; read-out: pTGI (converted),5.5 µM
same,GI50,[2],302 nM
same,CC50,[2]; [3],32.4 µM
same,TGI,[2]; read-out: pTGI (converted),5.13 µM
same,GI50,PC-3,191 nM
same,CC50,PC-3; [3],10 µM
same,TGI,PC-3; read-out: pTGI (converted),1100 nM
same,GI50,KM12,170 nM
same,LC50,KM12,1100 nM
same,TGI,KM12; read-out: pTGI (converted),380 nM
same,GI50,SK-MEL-28,708 nM
same,CC50,SK-MEL-28; [3],12 µM
same,TGI,SK-MEL-28; read-out: pTGI (converted),2290 nM
same,GI50,MDA-MB-231,229 nM
same,CC50,MDA-MB-231; [3],9.12 µM
same,TGI,MDA-MB-231; read-out: pTGI (converted),603 nM
same,GI50,NCI-H322M,3.31 µM
same,CC50,NCI-H322M; [3],57.5 µM
same,TGI,NCI-H322M; read-out: pTGI (converted),12 µM
same,GI50,U-251,813 nM
same,CC50,U-251; [3],5.25 µM
same,TGI,U-251; read-out: pTGI (converted),2190 nM
same,GI50,T47D,1510 nM
same,CC50,T47D; [3],47.9 µM
same,TGI,T47D; read-out: pTGI (converted),7.24 µM
same,GI50,SNB-75,2000 nM
same,CC50,SNB-75; [3],15.8 µM
same,TGI,SNB-75; read-out: pTGI (converted),6.61 µM
same,GI50,HT-29,363 nM
same,LC50,HT-29,3.63 µM
same,TGI,HT-29; read-out: pTGI (converted),1290 nM
same,GI50,OVCAR-4,851 nM
same,CC50,OVCAR-4; [3],38 µM
same,TGI,OVCAR-4; read-out: pTGI (converted),6.31 µM
same,GI50,SF-268,347 nM
same,CC50,SF-268; [3],12.9 µM
same,TGI,SF-268; read-out: pTGI (converted),3.89 µM
same,GI50,CCRF-CEM,170 nM
same,LC50,CCRF-CEM,33.9 µM
same,TGI,CCRF-CEM; read-out: pTGI (converted),776 nM
same,GI50,ACHN,776 nM
same,CC50,ACHN; [3],32.4 µM
same,TGI,ACHN; read-out: pTGI (converted),7.24 µM
same,GI50,NCI-H522,151 nM
same,CC50,NCI-H522; [3],646 nM
same,TGI,NCI-H522; read-out: pTGI (converted),380 nM
